Data: patent publication US5962525A, “6,7-disubstituted-2-aminotetralines active as immunomodulators and pharmaceutical compositions containing same” (Sigma-Tau, priority 1990, dated 1999)

Key:
splenocytes = assay: "In vitro-ex vivo" effect on the mytogen (PHA, ConA, LPS)-induced splenocyte proliferation in mice immunodepressed with cyclophosphamide; parameters: species or system mouse (B6 D2 F1); settings: for S.I. (stimulation index): with respect to the immunodepressed controls; for AUC (area under curve): immunodepressed
Protocol: Assessment of the "in vitro-ex vivo" effect of ST 557, ST 563 ST 564 on the mytogen (PHA, ConA, LPS)-Induced splenocyte proliferation in mice Immunodepressed with cyclotohosphamide
Male B6 D2 F1 mice aged 7-9 weeks (5 mice per group) were used.
The immunosuppressor (cyclophosphamide) was administered i.p. at the dose of 100 mg/kg at day -5. The compounds were administered i.p. (25 mg/kg/day) and per os (100 mg/kg/day) from day -5 to day -1 (spleen excision at day 0).
Splenocyte proliferation was induced by three different mytogens: PHA and ConA active on T-lymphocytes, and LPS active on B-lymphocytes. Each mytogen was tested at three different concentrations (suboptimal, optimal and superoptimal) corresponding to 0.5, 4 and 6 mcg/ml/well for PHA; 0.5, 4 and 8 mcg/ml/well for ConA and 0.5, 150 and 500 mcg/ml/well for LPS.
The experimental procedure is identical to that described in test 4.
The results are expressed as both AUC (see test 4) and S.I. In order to assess the efficacy of the immunosuppressor and the activity of the tested compounds, S.I. has been determined both for the immunodepressed controls (with respect to the normal controls) and for the immunodepressed treated animals (with respect to the immunodepressed controls), respectively. [formula]

[1] = tested on: murine peritoneal macrophages; tumor targets Daudi and CEM-CM3; assay: "In vitro-ex vivo" effect on the cytotoxic activity of peritoneal macrophages (lysis of 3H-TdR labelled tumor cells); parameters: species or system mouse (B6 D2 F1, C57B16); tumor targets human
Protocol: Assessment of the "in vitro-ex vivo" effect of ST 557, ST 563, ST 570 and ST 626 on the cytotoxic activity of peritoneal macrophages (M)
Male hybrid B6 D2 F1 aged 7-9 weeks and male inbred mice C57B16 aged 8 weeks were used (4 animals/group).
All the compounds were administered i.p. (25 mg/kg/day). ST 557 was also administered per os (100 mg/kg/day) from day -5 to day -1 (peritoneal exudate cell [PEC] harvesting at day 0).
PEC were obtained from sacrificed animals, 24 hours following the end of treatment, via repeated washings of the abdominal cavity. The peritoneal exudates obtained from each group of animals were pooled.
The macrophage percentage was assessed by counting in a Burker chamber; cell suspensions (concentration=2×10^6 M/ml) were prepared.
The macrophage cytotoxic activity was assessed using the following two tumor cell lines as targets: Daudi, derived from a human lymphoblastoma and CEM-CM3, derived from human lymphoblastic leukemia (both lines are disclosed in ATCC--American Type Culture Collection--Cell lines of hybridoma, 5th Ed.--1985).
The experimental procedure is substantially the same as that described by Herscowitz, H. B. (1981)--Manual of Macrophage Methodology. Dekker M, Editor.
In particular, samples of cell lines were labelled with ^3 H-TdR (tritiated thymidine) and their concentration was adjusted to 5×10^4 cells/ml. They were then added to the macrophage preparations (using 96-well microtiter plates) and the volumes were adjusted so as to obtain Effector (macrophage)/Target (tumor cell) ratios of 20:1; 40:1 and 80:1 in an overall volume of 0.3 ml/well.
Three replicates for each sample were prepared; after 48 and 72 hours of incubation at 37° C. in 5% CO2. Aliquots of 0.1 ml of supernatant were drawn out from each well and counted in a β-counter.
The macrophage cytotoxic activity results in a tumor cell lysis that causes the release of the radioactivity incorporated by the cells into the supernatant.
Based on the βeta-counter data (in cpm) this activity is expressed as the percentage of radioactivity released following lysis with respect to the radioactivity incorporated by the tumor cells.
The relevant formulas are as follows: [formula]
The measures carried out on the samples account for a certain degree of lysis occurring spontaneously in cultured tumor cells not exposed to macrophages. Total radioactivity incorporated by the tumor cells is calculated by conducting a lysis with 1% SDS in distilled water.

[2] = tested on: murine peritoneal exudate cells (PEC); assay: "In vitro-ex vivo" effect on the phagocytic activity of exudate peritoneal cells (SRBC phagocytosis); parameters: species or system mouse (B6 D2 F1); settings: for SRBC per phagocytizing cell: average number of SRBC in each phagocyte
Protocol: Assessment of the "in vitro-ex vivo" effect of ST 557, ST 563, ST 564, ST 570, ST 608 and ST 626 on the phagocytic activity of exudate peritoneal cells (PEC)
Male B6 D2 F1 mice aged 6-8 weeks (5 animals each group) were used.
The compounds were administered i.p. (25 mg/kg/day), ST 557, ST 563 and ST 626 were also administered per os (100 mg/kg/day) from day -5 to day -1 (PEC harvesting at day 0).
The experimental procedure was substantially the same as that described by Williams et al., in "Methods in Immunology and Immunochemistry", Acad. Press. 5: 261 (1976).
In particular, 24 hours following the end of the treatment, PECs from each experimental group were harvested, pooled and their concentration was adjusted to 4×10^6 cells/ml.
To volumes of 250 μl of each PEC sample were added equal volumes of 0.4% SRBC (Sheep Red Blood Cells) opsonized with hyperimmune serum.
The samples (duplicate) were incubated for 1 hour and then subjected to hypotonic shock in order to remove the non-phagocytized SRBC. After restoring the osmolarity, the phagocytes were cytocentrifuged, stained with a differential dye and observed under the microscope.
The results were expressed as:
(a) percentage of cells that have phagocytized with respect to 100 phagocytizing cells;
(b) total number of phagocytized SRBC;
(c) average number of SRBC in each phagocyte.

[3] = 48 hours, E/T 20:1, 25 mg/kg/day i.p., B6 D2 F1
[4] = 48 hours, E/T 20:1, 25 mg/kg/day i.p., repeated experiment, B6 D2 F1
[5] = 48 hours, E/T 40:1, 25 mg/kg/day i.p., B6 D2 F1
[6] = 48 hours, E/T 40:1, 25 mg/kg/day i.p., repeated experiment, B6 D2 F1
[7] = 48 hours, E/T 80:1, 25 mg/kg/day i.p., repeated experiment, B6 D2 F1
[8] = 72 hours, E/T 20:1, 25 mg/kg/day i.p., B6 D2 F1
[9] = 72 hours, E/T 20:1, 25 mg/kg/day i.p., repeated experiment, B6 D2 F1
[10] = 72 hours, E/T 40:1, 25 mg/kg/day i.p., B6 D2 F1
[11] = 72 hours, E/T 40:1, 25 mg/kg/day i.p., repeated experiment, B6 D2 F1
[12] = 72 hours, E/T 80:1, 25 mg/kg/day i.p., repeated experiment, B6 D2 F1

| Compound | S.I. (stimulation index) (splenocytes; ConA, 25 mg/kg/day i.p.) | S.I. (stimulation index) (splenocytes; ConA, 100 mg/kg/day os) | AUC (area under curve) (splenocytes; ConA, 25 mg/kg/day i.p.) | AUC (area under curve) (splenocytes; ConA, 100 mg/kg/day os) | S.I. (stimulation index) (splenocytes; LPS, 25 mg/kg/day i.p.) | S.I. (stimulation index) (splenocytes; LPS, 100 mg/kg/day os) | AUC (area under curve) (splenocytes; LPS, 25 mg/kg/day i.p.) | AUC (area under curve) (splenocytes; LPS, 100 mg/kg/day os) | S.I. (stimulation index) (splenocytes; PHA, 25 mg/kg/day i.p.) | AUC (area under curve) (splenocytes; PHA, 25 mg/kg/day i.p.) | % lysis of tumor target [1, 3] [%] | % lysis of tumor target [1, 4] [%] | % lysis of tumor target [1, 5] [%] | % lysis of tumor target [1, 6] [%] | % lysis of tumor target [1, 7] [%] | % lysis of tumor target [1, 8] [%] | % lysis of tumor target [1, 9] [%] | % lysis of tumor target [1, 10] [%] | % lysis of tumor target [1, 11] [%] | % lysis of tumor target [1, 12] [%] | further results |
| --- | --- | --- | --- | --- | --- | --- | --- | --- | --- | --- | --- | --- | --- | --- | --- | --- | --- | --- | --- | --- | --- |
| COc1cc2c(cc1OC)CC(N(CC1CC1)CC1CC1)CC2 (stereo not shown) [ST 557, 2-[(N,N-dicyclopropylmethyl)amino]-6,7-dimethoxytetraline] | 1.50 | 0.92 | 763 ± 14 ×10^-3 | 675 ± 21 ×10^-3 | 5.85 | 0.97 | 6411 ± 214 ×10^-3 | 4485 ± 433 ×10^-3 | 1.90 | 191 ± 10 ×10^-3 | 10.7 ± 0.2 | 7.8 ± 0.7 | 24.6 ± 0.8 | 13.2 ± 0.7 | 32.4 ± 0.9 | 13.1 ± 0.3 | 13.0 ± 0.7 | 29.3 ± 0.9 | 18.7 ± 0.9 | 45.3 ± 0.9 | % lysis of tumor target ([1]; 48 hours, E/T 20:1, 25 mg/kg/day i.p., repeated experiment, C57B16 mice): 10.8 ± 0.6%; % lysis of tumor target ([1]; 48 hours, E/T 20:1, 100 mg/kg/day os, B6 D2 F1): 22.7 ± 0.6%; % lysis of tumor target ([1]; 48 hours, E/T 40:1, 25 mg/kg/day i.p., repeated experiment, C57B16 mice): 16.4 ± 0.8%; % lysis of tumor target ([1]; 48 hours, E/T 40:1, 100 mg/kg/day os, B6 D2 F1): 30.1 ± 0.7%; % lysis of tumor target ([1]; 48 hours, E/T 80:1, 25 mg/kg/day i.p., repeated experiment, C57B16 mice): 28.3 ± 0.5%; % lysis of tumor target ([1]; 48 hours, E/T 80:1, 100 mg/kg/day os, B6 D2 F1): 29.7 ± 0.9%; % lysis of tumor target ([1]; 72 hours, E/T 20:1, 25 mg/kg/day i.p., repeated experiment, C57B16 mice): 11.9 ± 0.7%; % lysis of tumor target ([1]; 72 hours, E/T 20:1, 100 mg/kg/day os, B6 D2 F1): 29.7 ± 1.2%; % lysis of tumor target ([1]; 72 hours, E/T 40:1, 25 mg/kg/day i.p., repeated experiment, C57B16 mice): 11.9 ± 0.4%; % lysis of tumor target ([1]; 72 hours, E/T 40:1, 100 mg/kg/day os, B6 D2 F1): 41.5 ± 1.3%; % lysis of tumor target ([1]; 72 hours, E/T 80:1, 25 mg/kg/day i.p., repeated experiment, C57B16 mice): 30.9 ± 0.1%; % lysis of tumor target ([1]; 72 hours, E/T 80:1, 100 mg/kg/day os, B6 D2 F1): 44.4 ± 0.3%; Fagocytizing cells ([2]; 25 mg/kg/day i.p.): 29.6%; Total n° SRBC phagocytized ([2]; 25 mg/kg/day i.p.): 93.6; SRBC per phagocytizing cell ([2]; 25 mg/kg/day i.p.): 3.20; Fagocytizing cells ([2]; 100 mg/kg/day os): 59.0%; Total n° SRBC phagocytized ([2]; 100 mg/kg/day os): 190.5; SRBC per phagocytizing cell ([2]; 100 mg/kg/day os): 3.23 |
| COc1cc2c(cc1OC)CC(NCC(O)c1ccc(C)cc1)CC2 (stereo not shown) [ST 563, 2-[(N-2-hydroxy-2-(4-methylphenyl)ethyl)amino]-6,7-dimethoxytetraline] | 1.31 | 0.84 | 666 ± 16 ×10^-3 | 619 ± 12 ×10^-3 | 4.02 | 0.41 | 3715 ± 200 ×10^-3 | 3501 ± 360 ×10^-3 | 2.17 | 217 ± 14 ×10^-3 | 9.1 ± 0.2 | 7.7 ± 0.6 | 15.4 ± 0.2 | 9.4 ± 0.7 | 16.0 ± 1.0 | 11.0 ± 0.1 | 12.7 ± 0.5 | 18.3 ± 0.1 | 14.9 ± 0.9 | 22.2 ± 1.4 | Fagocytizing cells ([2]; 25 mg/kg/day i.p.): 42.5%; Total n° SRBC phagocytized ([2]; 25 mg/kg/day i.p.): 146.0; SRBC per phagocytizing cell ([2]; 25 mg/kg/day i.p.): 3.40; Fagocytizing cells ([2]; 100 mg/kg/day os): 58.5%; Total n° SRBC phagocytized ([2]; 100 mg/kg/day os): 164.0; SRBC per phagocytizing cell ([2]; 100 mg/kg/day os): 2.80 |
